Experiments:
HIV = HIV production from H9 cells persistently infected with HIV, RT activity; assay type: cell-based
Experimental: To examine the effect of IPA on the production of HIV-1 in H9 cells persistently infected with HIV-1, 5x10^6 HIV-1-infected H9 cells were incubated in the absence or presence of IPA. Every 4-5 days, two thirds of the total cells were removed and medium was changed. New medium with or without drug was added to bring up to the original volume. At days indicated, culture supernatant was withdrawn and tested for the production of HIV-1 by the RT activity. A 20,000 cpm or more TCA insoluble radioactivity per millilitre of supernatant was considered positive in the RT assay. Results

L major/L mexicana = experiment: Amastigote-promastigote (AM-PRO) transformation, in-vitro; assay type: cell-based; details: Lm.
B lymphocytes = experiment: Lymphocyte blastogenesis assay, B lymphocytes (PWM); assay type: cell-based, human
Experimental: T and B lymphocytes from normal human donors were incubated for 30 minutes at various dose levels of the compounds indicated. The lymphocytes were added in triplicate wells in gentamicin and phytohemagglutinin (PHA) (a T cell mitogen), pokeweed mitogen (PWM) (a B cell mitogen) and allogeneic mononuclear cells (mixed leukocyte cultures; MLC) or media containing the above additives. The lymphocyte blastogenesis assay is described in detail below.
The data are represented as the mean of the three replicates. The results are presented in Charts la(e) (i) and la(e) (ii) (Figs. 1 and 2). […] A reduction of both T lymphocytes' abilities to proliferate was obtained when 100 u.M or greater concentrations of IPA was added to the cell cultures. Proliferative activity of T lymphocytes by 25% at the 30 u.M concentration of IPA in the experiment.
• 1. Mononuclear cells are separated from whole blood by differential centrifugation using a synthetic separation medium, or are thawed from a cryopreserved preparation. The cells are washed and resuspended in media (RPMI - 1640, L-Glutamine 2mM, Herpes Buffer 25mM, Gentamicin 50 ug/ml, Human AB Serum-heat inactivated (56°, 30°) 20%). • 2. A viable cell count is determined. • 3. Cell concentration is adjusted to 2 x 10^6 /ml in media. • 4. The cell suspension is added to wells of a 96-well flat bottom plate in 0.1 ml aliquots (2 x 10^5 cells). • 5. The selected mitogens and/or antigens (in media without serum) are added to the cells in the wells also in 0.1 ml aliquots. • 6. The cultures are incubated for 3-7 days (depending upon the mitogen or antigen) at 37° C in a humidified 5% C02 atmosphere. • 7. Six to eight hours before termination of cultures 0.05 ml (1 µCi) of ^3HTdR sp. act 6.7 Ci/mM (20 µCi/ml stock) is added to each well. • 8. At termination of cultures the cells are harvested onto strips of scintillation-grade fibreglass paper using a multiple sample harvester. • 9. Perforated disks from the fibreglass paper of the harvested cultures are placed each into scintillation vials to which is then added 5 ml of toluene based scintillation cocktail. • 10. The vials are counted in a liquid scintillation counter for one minute where the amount of incorporated ^3HTdR is determined.
net CPM = xCPM of mitogen/antigen cultures - xCPM of media cultures.

HIV-I = experiment: Experiment la(a): macrophage cells, HIV-I, p24 antigen capture radio-immunoassay; assay type: cell-based; details: for TITER: control titer 100000; for wells positive for HIV-I p24, LOG VIRUS DILUTION -1 / wells positive for HIV-I p24, LOG VIRUS DILUTION -2 / wells positive for HIV-I p24, LOG VIRUS DILUTION -3 / wells positive for HIV-I p24, LOG VIRUS DILUTION -4 / wells positive for HIV-I p24, LOG VIRUS DILUTION -5 / wells positive for HIV-I p24, LOG VIRUS DILUTION -6: duplicate runs
Experimental: Fresh macrophage cultures were obtained by incubation of mononuclear cells obtained from a leukopak directly in the wells of a microtiter plate having 6 wells per row. After removal of non-adherent cells, each row of the adherent macrophages was infected with 10-fold serial dilutions of HIV-I, with the use of polybrene to enhance uptake of the virus. After one to two hours, the virus inoculum was removed and replaced with fresh normal growth medium. The fresh medium for each row contained a particular concentration of AZT, dideoxy cytidine (ddC), or compound la, as indicated by the left-hand column of Table la(a). The first row of wells acted as a control, and to it was added fresh medium containing none of the three drugs. Medium levels were maintained for two to four weeks to allow replication of the virus to take place, with at least one complete fluid change to remove residual virus inoculum. The contents of each well were then tested for the level of HIV p24 antigen present using a commercially available antigen capture kit employing a radio-immunoassay which can detect as little as 10'^9gm of p24 present in a sample. The above procedure was done in duplicate runs.
The results were interpreted as follows: 2/2, for example, means that both the corresponding wells of both runs were positive for HIV-I p24, while 0/2 means that neither well was positive. The titers are given in the next to last column; where 1/2 wells was positive, an intermediate value was given to the titer that is half way between the two dilutions when calculated on a logarithmic scale. 3 µM IPA was positive in both wells at a dilution of 1/10,000 and in neither well at 1/100,000. Thus, one half log interval between 10^4 and 10^5 is 10^4.5, or 30,000.

With `CC(C)=CCNc1ncnc2c1ncn2[C@@H]1O[C@H](CO)[C@@H](O)[C@H]1O` [IPA, N^6-(Δ^2-isopentenyl) adenosine] the “HIV PRODUCTION RT ACTIVITY cpm/ml” value (HIV; DRUG CONCENTRATION 3.75 (unit not given), 15 DAYS p.d., without drug 3 x 10^5) was 2.3 x 10^5 cpm/ml, the “HIV PRODUCTION RT ACTIVITY cpm/ml” value (HIV; DRUG CONCENTRATION 3.75 (unit not given), 25 DAYS p.d., without drug 1.1 x 10^6) was 1.2 x 10^5 cpm/ml and the “HIV PRODUCTION RT ACTIVITY cpm/ml” value (HIV; DRUG CONCENTRATION 7.5 (unit not given), 15 DAYS p.d., without drug 3 x 10^5) was 2.9 x 10^5 cpm/ml. For the same compound, the “HIV PRODUCTION RT ACTIVITY cpm/ml” value (HIV; DRUG CONCENTRATION 7.5 (unit not given), 25 DAYS p.d., without drug 1.1 x 10^6) was 3.2 x 10^5 cpm/ml, the “HIV PRODUCTION RT ACTIVITY cpm/ml” value (HIV; DRUG CONCENTRATION 15 (unit not given), 15 DAYS p.d., without drug 3 x 10^5) was 2.3 x 10^5 cpm/ml and the “HIV PRODUCTION RT ACTIVITY cpm/ml” value (HIV; DRUG CONCENTRATION 15 (unit not given), 25 DAYS p.d., without drug 1.1 x 10^6) was 3.6 x 10^5 cpm/ml. For the same compound, the “HIV PRODUCTION RT ACTIVITY cpm/ml” value (HIV; DRUG CONCENTRATION 30 (unit not given), 15 DAYS p.d., without drug 3 x 10^5) was 2.9 x 10^5 cpm/ml, the “HIV PRODUCTION RT ACTIVITY cpm/ml” value (HIV; DRUG CONCENTRATION 30 (unit not given), 25 DAYS p.d., without drug 1.1 x 10^6) was 2.5 x 10^5 cpm/ml and the “Activity, AM-PRO transform-ation” value (L major/L mexicana) was “+ +”. For the same compound, the B lymphocyte responsiveness (B lymphocytes; 10 µM, third experiment) was “Increased”, the B lymphocyte function (B lymphocytes; 1000 µM down to 10 µM, third experiment (Figs. 7 and 8)) was “reductions” and the B lymphocyte proliferation (B lymphocytes; 0.1 - 10 µM, first experiment) was “No effect or an increase”. The “reduction in B lymphocyte function” value (B lymphocytes; 30 -35 u.M, third experiment) was roughly 25%, the “reduction of B lymphocyte proliferation” value (B lymphocytes; between the 30 -10 u.M concentration levels, second experiment, approximate) was 30 -50% and the activity at 3 µM (HIV-I; Human immunodeficiency virus 1, Macrophage, drug 3 μM, titer relative to control, read-out: PERCENT OF CONTROL) was 30%. The activity at 10 µM (HIV-I; Human immunodeficiency virus 1, Macrophage, drug 10 μM, titer relative to control, read-out: PERCENT OF CONTROL) was 10%, the activity at 30 µM (HIV-I; Human immunodeficiency virus 1, Macrophage, drug 30 μM, titer relative to control, read-out: PERCENT OF CONTROL) was 1% and the activity at 100 µM (HIV-I; Human immunodeficiency virus 1, Macrophage, drug 100 μM, titer relative to control, read-out: PERCENT OF CONTROL) was 0.3%. The activity at 300 µM (HIV-I; Human immunodeficiency virus 1, Macrophage, drug 300 μM, titer relative to control, read-out: PERCENT OF CONTROL) was 0%, the activity at 1000 µM (HIV-I; Human immunodeficiency virus 1, Macrophage, drug 1000 μM, titer relative to control, read-out: PERCENT OF CONTROL) was 0% and the TITER (HIV-I; drug 3 μM) was 30000. For the same compound, the “wells positive for HIV-I p24, LOG VIRUS DILUTION -1” value (HIV-I; drug 3 μM) was 2/2, the “wells positive for HIV-I p24, LOG VIRUS DILUTION -2” value (HIV-I; drug 3 μM) was 2/2 and the “wells positive for HIV-I p24, LOG VIRUS DILUTION -3” value (HIV-I; drug 3 μM) was 2/2. For the same compound, the “wells positive for HIV-I p24, LOG VIRUS DILUTION -4” value (HIV-I; drug 3 μM) was 2/2, the “wells positive for HIV-I p24, LOG VIRUS DILUTION -5” value (HIV-I; drug 3 μM) was 0/2 and the “wells positive for HIV-I p24, LOG VIRUS DILUTION -6” value (HIV-I; drug 3 μM) was 0/2. For the same compound, the TITER (HIV-I; drug 10 μM) was 10000, the “wells positive for HIV-I p24, LOG VIRUS DILUTION -1” value (HIV-I; drug 10 μM) was 2/2 and the “wells positive for HIV-I p24, LOG VIRUS DILUTION -2” value (HIV-I; drug 10 μM) was 2/2. The “wells positive for HIV-I p24, LOG VIRUS DILUTION -3” value (HIV-I; drug 10 μM) was 2/2, the “wells positive for HIV-I p24, LOG VIRUS DILUTION -4” value (HIV-I; drug 10 μM) was 1/2 and the “wells positive for HIV-I p24, LOG VIRUS DILUTION -5” value (HIV-I; drug 10 μM) was 0/2. For the same compound, the “wells positive for HIV-I p24, LOG VIRUS DILUTION -6” value (HIV-I; drug 10 μM) was 0/2, the TITER (HIV-I; drug 30 μM) was 1000 and the “wells positive for HIV-I p24, LOG VIRUS DILUTION -1” value (HIV-I; drug 30 μM) was 2/2. For the same compound, the “wells positive for HIV-I p24, LOG VIRUS DILUTION -2” value (HIV-I; drug 30 μM) was 2/2, the “wells positive for HIV-I p24, LOG VIRUS DILUTION -3” value (HIV-I; drug 30 μM) was 1/2 and the “wells positive for HIV-I p24, LOG VIRUS DILUTION -4” value (HIV-I; drug 30 μM) was 0/2. The “wells positive for HIV-I p24, LOG VIRUS DILUTION -5” value (HIV-I; drug 30 μM) was 0/2, the “wells positive for HIV-I p24, LOG VIRUS DILUTION -6” value (HIV-I; drug 30 μM) was 0/2 and the TITER (HIV-I; drug 100 μM) was 300. The “wells positive for HIV-I p24, LOG VIRUS DILUTION -1” value (HIV-I; drug 100 μM) was 2/2, the “wells positive for HIV-I p24, LOG VIRUS DILUTION -2” value (HIV-I; drug 100 μM) was 2/2 and the “wells positive for HIV-I p24, LOG VIRUS DILUTION -3” value (HIV-I; drug 100 μM) was 0/2. For the same compound, the “wells positive for HIV-I p24, LOG VIRUS DILUTION -4” value (HIV-I; drug 100 μM) was 0/2, the “wells positive for HIV-I p24, LOG VIRUS DILUTION -5” value (HIV-I; drug 100 μM) was 0/2 and the “wells positive for HIV-I p24, LOG VIRUS DILUTION -6” value (HIV-I; drug 100 μM) was 0/2. The TITER (HIV-I; drug 300 μM) was 10, the “wells positive for HIV-I p24, LOG VIRUS DILUTION -1” value (HIV-I; drug 300 μM) was 0/2 and the “wells positive for HIV-I p24, LOG VIRUS DILUTION -2” value (HIV-I; drug 300 μM) was 0/2. The “wells positive for HIV-I p24, LOG VIRUS DILUTION -3” value (HIV-I; drug 300 μM) was 0/2, the “wells positive for HIV-I p24, LOG VIRUS DILUTION -4” value (HIV-I; drug 300 μM) was 0/2 and the “wells positive for HIV-I p24, LOG VIRUS DILUTION -5” value (HIV-I; drug 300 μM) was 0/2. The “wells positive for HIV-I p24, LOG VIRUS DILUTION -6” value (HIV-I; drug 300 μM) was 0/2, the TITER (HIV-I; drug 1000 μM) was 10 and the “wells positive for HIV-I p24, LOG VIRUS DILUTION -1” value (HIV-I; drug 1000 μM) was 0/2. The “wells positive for HIV-I p24, LOG VIRUS DILUTION -2” value (HIV-I; drug 1000 μM) was 0/2, the “wells positive for HIV-I p24, LOG VIRUS DILUTION -3” value (HIV-I; drug 1000 μM) was 0/2 and the “wells positive for HIV-I p24, LOG VIRUS DILUTION -4” value (HIV-I; drug 1000 μM) was 0/2. For the same compound, the “wells positive for HIV-I p24, LOG VIRUS DILUTION -5” value (HIV-I; drug 1000 μM) was 0/2 and the “wells positive for HIV-I p24, LOG VIRUS DILUTION -6” value (HIV-I; drug 1000 μM) was 0/2.
